Test results reported in patent US10072026B2, “Crystalline form of 3-((1R,3s,5S)-3-((7-((5-methyl-1H-pyrazol-3-yl)amino)-1,6-naphthyridin-5-yl)amino)-8-azabicyclo[3.2.1]octan-8-yl)propanenitrile” (priority 2015, dated 2018).

How the values were obtained:
[1] = system: IL-4 induced STAT6 phosphorylation in THP-1 human monocytic cells; assay: Cellular JAK potency assay, THP-1
JAK3 = JAK3 (Homo sapiens (Human), UniProt P52333); assay: LanthaScreen JAK biochemical assay (JAK3)
[2] = system: IL-13 induced STAT6 phosphorylation in BEAS-2B human lung epithelial cells; assay: AlphaScreen cellular JAK potency assay, BEAS-2B
JAK2 = JAK2 (Homo sapiens (Human), UniProt O60674); assay: LanthaScreen JAK biochemical assay (JAK2)
JAK2, sequence (O60674 whole entry): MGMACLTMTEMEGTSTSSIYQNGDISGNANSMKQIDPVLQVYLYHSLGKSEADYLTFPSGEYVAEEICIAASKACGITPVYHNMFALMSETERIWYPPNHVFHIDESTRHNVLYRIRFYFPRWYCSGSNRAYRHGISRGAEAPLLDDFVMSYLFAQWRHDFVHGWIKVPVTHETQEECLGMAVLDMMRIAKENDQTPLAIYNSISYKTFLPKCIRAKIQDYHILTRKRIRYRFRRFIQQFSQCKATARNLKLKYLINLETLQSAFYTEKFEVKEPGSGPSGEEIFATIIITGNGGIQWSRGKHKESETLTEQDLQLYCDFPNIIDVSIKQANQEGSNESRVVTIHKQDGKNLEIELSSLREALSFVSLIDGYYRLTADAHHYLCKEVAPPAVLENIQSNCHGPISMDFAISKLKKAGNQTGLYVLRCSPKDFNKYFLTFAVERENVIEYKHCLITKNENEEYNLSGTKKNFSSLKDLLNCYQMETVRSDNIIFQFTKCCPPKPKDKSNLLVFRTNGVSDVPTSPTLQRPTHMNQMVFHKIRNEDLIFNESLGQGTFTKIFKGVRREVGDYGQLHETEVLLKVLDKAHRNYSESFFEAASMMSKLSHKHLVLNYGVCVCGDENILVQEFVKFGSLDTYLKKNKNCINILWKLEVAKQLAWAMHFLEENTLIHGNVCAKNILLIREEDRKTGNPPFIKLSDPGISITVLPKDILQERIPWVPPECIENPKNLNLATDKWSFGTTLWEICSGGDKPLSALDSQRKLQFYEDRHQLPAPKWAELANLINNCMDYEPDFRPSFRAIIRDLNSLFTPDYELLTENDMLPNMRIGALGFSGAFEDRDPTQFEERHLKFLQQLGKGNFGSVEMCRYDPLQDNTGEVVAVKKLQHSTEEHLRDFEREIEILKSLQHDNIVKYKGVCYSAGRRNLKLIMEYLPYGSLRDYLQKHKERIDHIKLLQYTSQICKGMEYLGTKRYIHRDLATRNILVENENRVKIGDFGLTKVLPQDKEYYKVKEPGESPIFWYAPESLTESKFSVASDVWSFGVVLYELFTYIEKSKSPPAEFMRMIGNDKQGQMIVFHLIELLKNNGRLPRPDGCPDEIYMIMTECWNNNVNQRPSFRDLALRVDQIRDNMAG

JAK1 = JAK1 (Homo sapiens (Human), UniProt P23458); assay: LanthaScreen JAK biochemical assay (JAK1)
JAK1, sequence (P23458 whole entry): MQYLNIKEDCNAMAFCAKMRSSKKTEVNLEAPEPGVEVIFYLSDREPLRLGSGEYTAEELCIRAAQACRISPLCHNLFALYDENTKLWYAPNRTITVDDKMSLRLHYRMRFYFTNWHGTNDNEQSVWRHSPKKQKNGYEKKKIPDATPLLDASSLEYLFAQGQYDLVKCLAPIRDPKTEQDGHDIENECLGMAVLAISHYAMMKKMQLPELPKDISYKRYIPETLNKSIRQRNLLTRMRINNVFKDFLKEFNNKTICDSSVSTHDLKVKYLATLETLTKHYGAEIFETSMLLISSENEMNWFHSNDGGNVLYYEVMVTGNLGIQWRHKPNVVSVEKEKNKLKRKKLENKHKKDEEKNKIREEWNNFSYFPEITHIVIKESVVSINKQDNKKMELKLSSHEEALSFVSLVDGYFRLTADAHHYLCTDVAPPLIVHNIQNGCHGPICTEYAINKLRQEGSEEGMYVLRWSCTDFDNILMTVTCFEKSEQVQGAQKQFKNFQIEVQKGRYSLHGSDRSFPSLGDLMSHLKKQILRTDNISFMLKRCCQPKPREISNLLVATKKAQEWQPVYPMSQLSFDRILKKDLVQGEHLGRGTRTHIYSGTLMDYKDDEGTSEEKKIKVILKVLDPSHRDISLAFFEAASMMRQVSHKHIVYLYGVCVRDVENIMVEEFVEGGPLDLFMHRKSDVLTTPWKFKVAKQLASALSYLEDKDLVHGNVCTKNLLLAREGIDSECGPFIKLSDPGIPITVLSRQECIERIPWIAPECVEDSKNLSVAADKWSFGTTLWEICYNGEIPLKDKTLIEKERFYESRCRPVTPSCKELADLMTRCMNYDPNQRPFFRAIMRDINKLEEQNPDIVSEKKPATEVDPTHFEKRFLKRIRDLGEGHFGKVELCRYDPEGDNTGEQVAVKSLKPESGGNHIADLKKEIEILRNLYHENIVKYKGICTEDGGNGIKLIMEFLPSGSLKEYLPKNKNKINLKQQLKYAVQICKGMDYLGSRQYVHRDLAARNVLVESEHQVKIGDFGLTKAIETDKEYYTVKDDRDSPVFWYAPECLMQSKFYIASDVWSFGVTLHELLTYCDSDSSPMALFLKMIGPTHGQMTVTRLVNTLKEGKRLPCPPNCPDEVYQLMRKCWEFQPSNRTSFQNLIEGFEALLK

Tyk2 = Tyk2 (Homo sapiens (Human), UniProt P29597); assay: LanthaScreen JAK biochemical assay (Tyk2)
Tyk2, sequence (P29597 whole entry): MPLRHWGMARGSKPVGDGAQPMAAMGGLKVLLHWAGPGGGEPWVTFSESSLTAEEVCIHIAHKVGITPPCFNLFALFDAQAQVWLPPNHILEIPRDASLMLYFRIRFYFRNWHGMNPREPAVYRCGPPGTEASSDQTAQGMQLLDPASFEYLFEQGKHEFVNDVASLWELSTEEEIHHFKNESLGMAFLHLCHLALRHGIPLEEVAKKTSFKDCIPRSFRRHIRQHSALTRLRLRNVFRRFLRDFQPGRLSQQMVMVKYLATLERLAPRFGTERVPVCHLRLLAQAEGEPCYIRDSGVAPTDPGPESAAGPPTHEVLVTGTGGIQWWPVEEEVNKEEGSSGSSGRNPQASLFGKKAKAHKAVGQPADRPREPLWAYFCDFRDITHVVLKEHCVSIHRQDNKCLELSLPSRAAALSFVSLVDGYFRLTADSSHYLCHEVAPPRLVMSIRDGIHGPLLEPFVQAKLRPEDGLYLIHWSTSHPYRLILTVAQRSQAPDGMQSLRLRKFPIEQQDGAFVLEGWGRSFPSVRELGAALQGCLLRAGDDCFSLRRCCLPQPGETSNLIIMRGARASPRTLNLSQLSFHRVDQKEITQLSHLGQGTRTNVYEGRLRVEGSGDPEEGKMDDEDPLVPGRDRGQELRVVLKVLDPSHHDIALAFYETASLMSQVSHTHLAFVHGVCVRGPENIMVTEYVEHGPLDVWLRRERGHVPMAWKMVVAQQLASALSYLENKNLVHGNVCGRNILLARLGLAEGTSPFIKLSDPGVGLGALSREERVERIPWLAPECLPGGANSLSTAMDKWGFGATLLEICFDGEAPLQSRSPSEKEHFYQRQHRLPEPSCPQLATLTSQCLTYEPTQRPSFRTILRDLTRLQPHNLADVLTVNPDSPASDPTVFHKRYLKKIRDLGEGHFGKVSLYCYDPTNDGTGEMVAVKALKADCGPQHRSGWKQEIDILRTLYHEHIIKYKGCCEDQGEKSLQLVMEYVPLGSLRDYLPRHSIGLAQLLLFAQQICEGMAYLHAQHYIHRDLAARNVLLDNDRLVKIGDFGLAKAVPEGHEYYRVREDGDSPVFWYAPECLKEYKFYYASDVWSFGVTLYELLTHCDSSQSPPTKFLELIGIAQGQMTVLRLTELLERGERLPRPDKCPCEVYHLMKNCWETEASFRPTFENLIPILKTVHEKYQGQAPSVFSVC

[3] = THP-1 cells, IL-4 induced STAT6 phosphorylation
[4] = BEAS-2B cells, IL-13 induced STAT6 phosphorylation
[5] = IL-4 induced STAT6 phosphorylation, THP-1 cells
[6] = IL-13 induced STAT6 phosphorylation, BEAS-2B cells

SMILES | THP-1 IL4 pIC50 [1, 3] | JAK 3 (pKi) (JAK3) | BEAS2B pIC50 [2, 4] | JAK 2 (pKi) (JAK2) | JAK 1 (pKi) (JAK1) | Tyk 2 (pKi) (Tyk2) | THP-1 IL4 pIC50 [1, 5] | BEAS2B pIC50 [2, 6]
Cc1cc(Nc2nc(N[C@@H]3C[C@H]4CC[C@@H](C3)N4S(C)(=O)=O)c3cccnc3c2F)n[nH]1 [Example 8-2] | A (A represents a pEC50 value≥7.5 (EC50≤32 nM)) | C (C represents a pKi value between 7 and 9 (Ki between 100 nM and 1 nM)) | C (C represents a pEC50 value<6.7 (EC50>200 nM)) | B (B represents a pKi value between 9 and 10 (Ki between 1 nM and 0.1 nM)) | B (B represents a pKi value between 9 and 10 (Ki between 1 nM and 0.1 nM)) | – | – | –
Cc1cc(Nc2nc(N[C@@H]3C[C@H]4CCC[C@@H](C3)N4CCC#N)c3cccnc3c2F)n[nH]1 [Example 8-9] | B (B represents a pEC50 value between 6.7 and 7.5 (EC50 between 200 nM and 32 nM)) | C (C represents a pKi value between 7 and 9 (Ki between 100 nM and 1 nM)) | – | B (B represents a pKi value between 9 and 10 (Ki between 1 nM and 0.1 nM)) | B (B represents a pKi value between 9 and 10 (Ki between 1 nM and 0.1 nM)) | – | – | –
Cc1cc(Nc2nc(NC3CC4CCC(C3)N4C(=O)C(C)O)c3cccnc3c2F)n[nH]1 (stereo not drawn) [Example 8-8] | C (C represents a pEC50 value<6.7 (EC50>200 nM)) | C (C represents a pKi value between 7 and 9 (Ki between 100 nM and 1 nM)) | – | C (C represents a pKi value between 7 and 9 (Ki between 100 nM and 1 nM)) | C (C represents a pKi value between 7 and 9 (Ki between 100 nM and 1 nM)) | C (C represents a pKi value between 7 and 9 (Ki between 100 nM and 1 nM)) | – | –
Cc1cc(Nc2cc3ncc(S(C)(=O)=O)cc3c(N[C@@H]3C[C@H]4CC[C@@H](C3)N4C(=O)CC#N)n2)n[nH]1 [Example 6-51] | C (C represents a pEC50 value<6.7 (EC50>200 nM)) | C (C represents a pKi value between 7 and 9 (Ki between 100 nM and 1 nM)) | – | B (B represents a pKi value between 9 and 10 (Ki between 1 nM and 0.1 nM)) | B (B represents a pKi value between 9 and 10 (Ki between 1 nM and 0.1 nM)) | – | – | –
COc1cnc2cc(Nc3cc(C)[nH]n3)nc(NC3CC4CCCC(C3)N4C(=O)C(C)O)c2c1 (stereo not drawn) [Example 6-27] | B (B represents a pEC50 value between 6.7 and 7.5 (EC50 between 200 nM and 32 nM)) | C (C represents a pKi value between 7 and 9 (Ki between 100 nM and 1 nM)) | – | B (B represents a pKi value between 9 and 10 (Ki between 1 nM and 0.1 nM)) | B (B represents a pKi value between 9 and 10 (Ki between 1 nM and 0.1 nM)) | C (C represents a pKi value between 7 and 9 (Ki between 100 nM and 1 nM)) | – | –
Cc1cc(Nc2nc(N[C@@H]3C[C@H]4CCC[C@@H](C3)N4S(=O)(=O)c3cncc(F)c3)c3cccnc3c2F)n[nH]1 [Example 8-13] | B (B represents a pEC50 value between 6.7 and 7.5 (EC50 between 200 nM and 32 nM)) | C (C represents a pKi value between 7 and 9 (Ki between 100 nM and 1 nM)) | A (A represents a pEC50 value≥7.5 (EC50≤32 nM)) | B (B represents a pKi value between 9 and 10 (Ki between 1 nM and 0.1 nM)) | B (B represents a pKi value between 9 and 10 (Ki between 1 nM and 0.1 nM)) | – | – | –
Cc1cc(Nc2cc3ncccc3c(N[C@@H]3C[C@H]4CC[C@@H](C3)N4C(=O)C(C)F)n2)n[nH]1 (stereo partly drawn) [Example 2-3] | – | C (C represents a pKi value between 7 and 9 (Ki between 100 nM and 1 nM)) | – | B (B represents a pKi value between 9 and 10 (Ki between 1 nM and 0.1 nM)) | B (B represents a pKi value between 9 and 10 (Ki between 1 nM and 0.1 nM)) | – | B (B represents a pEC50 value between 6.7 and 7.5 (EC50 between 200 nM and 32 nM)) | A (A represents a pEC50 value≥7.5 (EC50≤32 nM))
C=CCOC(=O)N1[C@@H]2CC[C@H]1C[C@H](Nc1nc(Nc3cc(C)[nH]n3)cc3nc(OC)ccc13)C2 [Example 5-7] | – | C (C represents a pKi value between 7 and 9 (Ki between 100 nM and 1 nM)) | – | – | B (B represents a pKi value between 9 and 10 (Ki between 1 nM and 0.1 nM)) | – | B (B represents a pEC50 value between 6.7 and 7.5 (EC50 between 200 nM and 32 nM)) | A (A represents a pEC50 value≥7.5 (EC50≤32 nM))
COC(=O)c1cnc2cc(Nc3cc(C)[nH]n3)nc(N[C@@H]3C[C@H]4CCC[C@@H](C3)N4C[C@H]3CCC(=O)O3)c2c1 [Example 6-49] | B (B represents a pEC50 value between 6.7 and 7.5 (EC50 between 200 nM and 32 nM)) | C (C represents a pKi value between 7 and 9 (Ki between 100 nM and 1 nM)) | – | B (B represents a pKi value between 9 and 10 (Ki between 1 nM and 0.1 nM)) | B (B represents a pKi value between 9 and 10 (Ki between 1 nM and 0.1 nM)) | C (C represents a pKi value between 7 and 9 (Ki between 100 nM and 1 nM)) | – | –
